# Bridge positions count the residues as written; N and C are the ends. Square brackets hold non-standard residues; d marks the D form. Peptide text beside a SMILES is read from it. * marks the point of attachment. ξ: configuration not given here. Phe(4-CONH2) = NC(=O)c1ccc(C[C@H](N)C(=O)O)cc1; Phe(4-COOH) = N[C@@H](Cc1ccc(C(=O)O)cc1)C(=O)O; Asp(3,3-Me2) = CC(C)(C(=O)O)[C@H](N)C(=O)O; Bip = N[C@@H](Cc1ccc(-c2ccccc2)cc1)C(=O)O; Phe(3-Me) = Cc1cccc(C[C@H](N)C(=O)O)c1; Val(3-OH) = CC(C)(O)[C@H](N)C(=O)O; NMeF = CN[C@@H](Cc1ccccc1)C(=O)O; hPhe = N[C@@H](CCc1ccccc1)C(=O)O; 3Pal = N[C@@H](Cc1cccnc1)C(=O)O; 4Pal = N[C@@H](Cc1ccncc1)C(=O)O; Cha = N[C@@H](CC1CCCCC1)C(=O)O; dNMeNle = CCCC[C@@H](NC)C(=O)O; ξ4Pal = NC(Cc1ccncc1)C(=O)O; Carboxymethyl = O=C(O)C*; NMeA = CN[C@@H](C)C(=O)O; Dab = NCC[C@H](N)C(=O)O; Dap = NC[C@H](N)C(=O)O; Ac3c = NC1(C(=O)O)CC1; Piv = CC(C)(C)C(=O)*
# Molecular target: T1, PE-labeled human PD-L1-Ig binding to Jurkat cell line over-expressing human PD-1 (Jurkat-PD-1) (Homo sapiens, UniProt Q15116)
# T1 construct: expressed in transfected cells; host or cells: Jurkat
# T1 sequence (Q15116 25-288): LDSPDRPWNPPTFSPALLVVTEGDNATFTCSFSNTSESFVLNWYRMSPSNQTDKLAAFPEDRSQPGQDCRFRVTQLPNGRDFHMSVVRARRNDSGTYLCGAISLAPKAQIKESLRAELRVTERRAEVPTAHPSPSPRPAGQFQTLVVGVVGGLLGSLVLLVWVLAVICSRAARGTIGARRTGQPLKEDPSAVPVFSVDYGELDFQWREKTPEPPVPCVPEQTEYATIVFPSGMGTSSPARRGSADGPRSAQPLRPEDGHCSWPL
# Experiment: Jurkat-PD-1 Cell Binding High-Content Screening Assay (CBA): Method 1
# Settings: Jurkat-hPD-1 cells, PE-labeled PD-L1-Ig 20 nM final; read-out: Jurkat HPDL1 PD1 IC50 (uM) (Method 1)
row,Structure (SMILES),IC50
1,CCNC(=O)[C@H](CCN)NC(=O)[C@@H]1CSCC(=O)N[C@@H](Cc2ccncc2)C(=O)N[C@@H](Cc2ccc(C(=O)O)cc2)C(=O)N[C@@H](CC(=O)O)C(=O)N[C@@H](Cc2c[nH]c3ccccc23)C(=O)N[C@@H](CC(C)C)C(=O)N[C@@H](Cc2ccc(-c3ccccc3)cc2)C(=O)N[C@@H]([C@@H](C)CC)C(=O)N(C)[C@@H](C)C(=O)N[C@H](CC(C)C)C(=O)N[C@@H](CCN)C(=O)N[C@@H](CC2CCCCC2)C(=O)N[C@@H](C(C)(C)O)C(=O)N[C@@H](CO)C(=O)N1 [Compound 1849] ({CH2CO}-[4Pal][Phe(4-COOH)]DWL[Bip]I[NMeA][dL][Dab][Cha][Val(3-OH)]SC[Dab]-NHEt; thioether N-14),0.01 µM
2,CCNC(=O)[C@H](CCN)NC(=O)[C@@H]1CSCC(=O)N[C@@H](CCN)C(=O)N[C@@H](Cc2ccc(C(=O)O)cc2)C(=O)N[C@@H](CC(=O)O)C(=O)N[C@@H](Cc2c[nH]c3ccccc23)C(=O)N[C@@H](CC(C)C)C(=O)N[C@@H](Cc2ccc(-c3ccccc3)cc2)C(=O)N[C@@H]([C@@H](C)CC)C(=O)N(C)[C@@H](C)C(=O)N[C@H](CC(C)C)C(=O)N[C@@H](CCN)C(=O)N[C@@H](CC2CCCCC2)C(=O)N[C@@H](C(C)(C)O)C(=O)N[C@@H](CO)C(=O)N1 [Compound 1850] ({CH2CO}-[Dab][Phe(4-COOH)]DWL[Bip]I[NMeA][dL][Dab][Cha][Val(3-OH)]SC[Dab]-NHEt; thioether N-14),0.01 µM
3,CCNC(=O)[C@H](CCN)NC(=O)[C@@H]1CSCC(=O)N[C@@H](CCc2ccccc2)C(=O)N[C@@H](Cc2ccc(OCC(=O)O)cc2)C(=O)N[C@@H](CC(=O)O)C(=O)N[C@@H](Cc2cccc(C)c2)C(=O)N[C@@H](Cc2ccc(OCC(=O)O)cc2)C(=O)N[C@@H](Cc2ccc(-c3ccccc3)cc2)C(=O)N[C@@H](Cc2ccc(OCC(=O)O)cc2)C(=O)N(C)[C@@H](C)C(=O)N[C@H](CC(C)C)C(=O)N[C@@H](CCN)C(=O)N[C@@H](CC2CCCCC2)C(=O)N[C@@H](C(C)C)C(=O)N[C@@H]([C@@H](C)O)C(=O)N1 [Compound 1855] ({CH2CO}-[hPhe]Y(Carboxymethyl)D[Phe(3-Me)]Y(Carboxymethyl)[Bip]Y(Carboxymethyl)[NMeA][dL][Dab][Cha]VTC[Dab]-NHEt; thioether N-14),0.01 µM
4,CCNC(=O)[C@H](CCN)NC(=O)[C@@H]1CSCC(=O)N[C@@H](Cc2cccnc2)C(=O)N[C@@H](Cc2ccc(OCC(=O)O)cc2)C(=O)N[C@@H](CC(=O)O)C(=O)N[C@@H](Cc2cccc(C)c2)C(=O)N[C@@H](Cc2ccc(OCC(=O)O)cc2)C(=O)N[C@@H](Cc2ccc(-c3ccccc3)cc2)C(=O)N[C@@H](Cc2ccc(OCC(=O)O)cc2)C(=O)N(C)[C@@H](C)C(=O)N[C@H](CC(C)C)C(=O)N[C@@H](CCN)C(=O)N[C@@H](CC2CCCCC2)C(=O)N[C@@H](C(C)C)C(=O)N[C@@H]([C@@H](C)O)C(=O)N1 [Compound 1856] ({CH2CO}-[3Pal]Y(Carboxymethyl)D[Phe(3-Me)]Y(Carboxymethyl)[Bip]Y(Carboxymethyl)[NMeA][dL][Dab][Cha]VTC[Dab]-NHEt; thioether N-14),0.02 µM
5,CCNC(=O)[C@H](CCN)NC(=O)[C@@H]1CSCC(=O)N[C@@H](Cc2ccc(C(N)=O)cc2)C(=O)N[C@@H](Cc2ccc(OCC(=O)O)cc2)C(=O)N[C@@H](CC(=O)O)C(=O)N[C@@H](Cc2cccc(C)c2)C(=O)N[C@@H](Cc2ccc(OCC(=O)O)cc2)C(=O)N[C@@H](Cc2ccc(-c3ccccc3)cc2)C(=O)N[C@@H](Cc2ccc(OCC(=O)O)cc2)C(=O)N(C)[C@@H](C)C(=O)N[C@H](CC(C)C)C(=O)N[C@@H](CCN)C(=O)N[C@@H](CC2CCCCC2)C(=O)N[C@@H](C(C)C)C(=O)N[C@@H]([C@@H](C)O)C(=O)N1 [Compound 1857] ({CH2CO}-[Phe(4-CONH2)]Y(Carboxymethyl)D[Phe(3-Me)]Y(Carboxymethyl)[Bip]Y(Carboxymethyl)[NMeA][dL][Dab][Cha]VTC[Dab]-NHEt; thioether N-14),0.01 µM
6,CCNC(=O)[C@H](CCN)NC(=O)[C@@H]1CSCC(=O)N[C@@H](Cc2ccncc2)C(=O)N[C@@H](Cc2ccc(OCC(=O)O)cc2)C(=O)N[C@@H](CC(=O)O)C(=O)N[C@@H](Cc2cccc(C)c2)C(=O)N[C@@H](Cc2ccc(OCC(=O)O)cc2)C(=O)N[C@@H](Cc2ccc(-c3ccccc3)cc2)C(=O)N[C@@H](Cc2ccc(OCC(=O)O)cc2)C(=O)N(C)[C@@H](C)C(=O)N[C@H](CC(C)C)C(=O)N[C@@H](CCN)C(=O)N[C@@H](CC2CCCCC2)C(=O)N[C@@H](C(C)C)C(=O)N[C@@H]([C@@H](C)O)C(=O)N1 [Compound 1858] ({CH2CO}-[4Pal]Y(Carboxymethyl)D[Phe(3-Me)]Y(Carboxymethyl)[Bip]Y(Carboxymethyl)[NMeA][dL][Dab][Cha]VTC[Dab]-NHEt; thioether N-14),0.01 µM
7,Cc1cccc(C[C@@H]2NC(=O)[C@H](CC(=O)O)NC(=O)[C@H](Cc3ccc(OCC(=O)O)cc3)NC(=O)C(Cc3ccncc3)NC(=O)CSC[C@@H](C(=O)NC3(C(N)=O)CC3)NC(=O)[C@H](CO)NC(=O)[C@H](C(C)C)NC(=O)[C@H](CC3CCCCC3)NC(=O)[C@H](CCN)NC(=O)[C@@H](CC(C)C)NC(=O)[C@H](C)N(C)C(=O)[C@H](Cc3ccc(OCC(=O)O)cc3)NC(=O)[C@H](Cc3ccc(-c4ccccc4)cc3)NC(=O)[C@H](Cc3ccc(OCC(=O)O)cc3)NC2=O)c1 (stereo partly drawn) [Compound 1863] ({CH2CO}-[ξ4Pal]Y(Carboxymethyl)D[Phe(3-Me)]Y(Carboxymethyl)[Bip]Y(Carboxymethyl)[NMeA][dL][Dab][Cha]VSC[Ac3c]-NH2; thioether N-14),0.01 µM

# Continued, values first:
row,IC50,Structure (SMILES)
1,0.06 µM,"Cc1cccc(C[C@@H]2NC(=O)[C@H](CC(=O)O)NC(=O)[C@H](Cc3ccc(OCC(=O)O)cc3)NC(=O)[C@H](CCN)NC(=O)CSC[C@@H](C(=O)N[C@@H](CCN)C(N)=O)NC(=O)[C@H](CO)NC(=O)[C@H](C(C)(C)C(=O)O)NC(=O)[C@H](CC3CCCCC3)NC(=O)[C@H](CCN)NC(=O)[C@@H](CC(C)C)NC(=O)[C@H](C)N(C)C(=O)[C@H](Cc3ccc(OCC(=O)O)cc3)NC(=O)[C@H](Cc3ccc(-c4ccccc4)cc3)NC(=O)[C@H](Cc3ccc(OCC(=O)O)cc3)NC2=O)c1 [Compound 1848] ({CH2CO}-[Dab]Y(Carboxymethyl)D[Phe(3-Me)]Y(Carboxymethyl)[Bip]Y(Carboxymethyl)[NMeA][dL][Dab][Cha][Asp(3,3-Me2)]SC[Dab]-NH2; thioether N-14)"
2,0.05 µM,CCCC[C@@H]1C(=O)N[C@@H](Cc2ccc(OCC(=O)O)cc2)C(=O)N[C@@H](CC(=O)O)C(=O)N[C@@H](Cc2cccc(C)c2)C(=O)N[C@@H](Cc2ccc(OCC(=O)O)cc2)C(=O)N[C@@H](Cc2ccc(-c3ccccc3)cc2)C(=O)N[C@@H](Cc2ccc(OCC(=O)O)cc2)C(=O)N(C)[C@@H](C)C(=O)N[C@H](CC(C)C)C(=O)N[C@@H](CCN)C(=O)N[C@@H](CC2CCCCC2)C(=O)N[C@@H](C(C)C)C(=O)N[C@@H](CO)C(=O)N[C@H](C(=O)N[C@@H](CCN)C(N)=O)CSCC(=O)N1C [Compound 1859] ({CH2CO}-[dNMeNle]Y(Carboxymethyl)D[Phe(3-Me)]Y(Carboxymethyl)[Bip]Y(Carboxymethyl)[NMeA][dL][Dab][Cha]VSC[Dab]-NH2; thioether N-14)
3,0.01 µM,Cc1cccc(C[C@@H]2NC(=O)[C@H](CC(=O)O)NC(=O)[C@H](Cc3ccc(OCC(=O)O)cc3)NC(=O)[C@H](Cc3ccncc3)NC(=O)CSC[C@@H](C(=O)N[C@@H](CCN)C(N)=O)NC(=O)[C@H](CO)NC(=O)[C@H](C(C)C)NC(=O)[C@H](CC3CCCCC3)NC(=O)[C@H](CCN)NC(=O)[C@@H](CC(C)C)NC(=O)[C@H](C)N(C)C(=O)[C@H](Cc3ccc(OCC(=O)O)cc3)NC(=O)[C@H](Cc3ccc(-c4ccccc4)cc3)NC(=O)[C@H](Cc3ccc(OCC(=O)O)cc3)NC2=O)c1 [Compound 1860] ({CH2CO}-[4Pal]Y(Carboxymethyl)D[Phe(3-Me)]Y(Carboxymethyl)[Bip]Y(Carboxymethyl)[NMeA][dL][Dab][Cha]VSC[Dab]-NH2; thioether N-14)
4,0.1 µM,Cc1cccc(C[C@@H]2NC(=O)[C@H](CC(=O)O)NC(=O)[C@H](Cc3ccc(OCC(=O)O)cc3)NC(=O)[C@H](Cc3ccccc3)N(C)C(=O)CSC[C@@H](C(=O)N[C@@H](CCN)C(N)=O)NC(=O)[C@H](CO)NC(=O)[C@H](C(C)C)NC(=O)[C@H](CC3CCCCC3)NC(=O)[C@H](CCN)NC(=O)[C@@H](CC(C)C)NC(=O)[C@H](C)N(C)C(=O)[C@H](Cc3ccc(OCC(=O)O)cc3)NC(=O)[C@H](Cc3ccc(-c4ccccc4)cc3)NC(=O)[C@H](Cc3ccc(OCC(=O)O)cc3)NC2=O)c1 [Compound 1861] ({CH2CO}-[NMeF]Y(Carboxymethyl)D[Phe(3-Me)]Y(Carboxymethyl)[Bip]Y(Carboxymethyl)[NMeA][dL][Dab][Cha]VSC[Dab]-NH2; thioether N-14)
5,0.04 µM,Cc1cccc(C[C@@H]2NC(=O)[C@H](CC(=O)O)NC(=O)[C@H](Cc3ccc(OCC(=O)O)cc3)NC(=O)[C@H]([C@@H](C)O)NC(=O)CSC[C@@H](C(=O)NC3(C(N)=O)CC3)NC(=O)[C@H](CO)NC(=O)[C@H](C(C)C)NC(=O)[C@H](CC3CCCCC3)NC(=O)[C@H](CCN)NC(=O)[C@@H](CC(C)C)NC(=O)[C@H](C)N(C)C(=O)[C@H](Cc3ccc(OCC(=O)O)cc3)NC(=O)[C@H](Cc3ccc(-c4ccccc4)cc3)NC(=O)[C@H](Cc3ccc(OCC(=O)O)cc3)NC2=O)c1 [Compound 1862] ({CH2CO}-TY(Carboxymethyl)D[Phe(3-Me)]Y(Carboxymethyl)[Bip]Y(Carboxymethyl)[NMeA][dL][Dab][Cha]VSC[Ac3c]-NH2; thioether N-14)
6,0.04 µM,Cc1cccc(C[C@@H]2NC(=O)[C@H](CC(=O)O)NC(=O)[C@H](Cc3ccc(OCC(=O)O)cc3)NC(=O)[C@H](CN)NC(=O)CSC[C@@H](C(=O)N[C@@H](CCN)C(N)=O)NC(=O)[C@H]([C@@H](C)O)NC(=O)[C@H](C(C)C)NC(=O)[C@H](CC3CCCCC3)NC(=O)[C@H](CCNC(=O)C(C)(C)C)NC(=O)[C@@H](CC(C)C)NC(=O)[C@H](C)N(C)C(=O)[C@H](Cc3ccc(OCC(=O)O)cc3)NC(=O)[C@H](Cc3ccc(-c4ccccc4)cc3)NC(=O)[C@H](Cc3ccc(OCC(=O)O)cc3)NC2=O)c1 [Compound 1864] ({CH2CO}-[Dap]Y(Carboxymethyl)D[Phe(3-Me)]Y(Carboxymethyl)[Bip]Y(Carboxymethyl)[NMeA][dL][Dab](Piv)[Cha]VTC[Dab]-NH2; thioether N-14)

# Reference: patent US20240409585A1, “MACROCYCLIC IMMUNOMODULATORS” (priority 2021, published 2024)
